26 compounds from patent US10988477B2 (Merck Patent GmbH, priority 2018, dated 2021) can be followed below.

Each structure is given as a SMILES string.

One assay has as its target GCN2 kinase (Homo sapiens, UniProt Q9P2K8). In words: GCN2 enzyme inhibition assay (Transcreener ADP2 fluorescence polarization). The class given is biochemical. The note with it: 280 μM ATP. Summed up:
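4 nM GCN2 + 200 μM (RS)7 + compound (0–8 μM), 10 min preinc.; start with ATP (280 μM final); 1 h, 25 °C; pH 7.5 Tris/NaCl/MgCl2/DTT; ADP FP readout; IC50, Ki(app) via tight-binding fit.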

The target in assay [1] is intracellular GCN2 (phosphorylation of the GCN2 substrate eIF2α) (Homo sapiens, UniProt Q9P2K8). As to the kind of experiment: GCN2 cellular inhibition assay (AlphaScreen SureFire P-eIF2α Ser51, borrelidin-treated U2OS cells). Conditions: biomarker assay, phosphorylated eIF2α Ser51 in borrelidin-treated U2OS cells. The assay is classed as cell-based. Summed up: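 First, U2OS cells are plated and left overnight at 37 °C. Next, compounds (from 40 μM final, 4-fold steps) and 10 μM borrelidin are added for 1 h, cells lysed, and phospho-Ser51 eIF2α detected by AlphaScreen bead sandwich. Inhibition is computed versus borrelidin-only wells.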
(Alpha assays give light when donor and acceptor beads are brought close together.)

Where [2] appears, read: Enzyme activity for compounds of Formula IV, Ki(app), 25° C.
Where [3] appears, read: compounds of Formula II, 4 nM GCN2 kinase.

GCN2 kinase, sequence (Q9P2K8 whole entry): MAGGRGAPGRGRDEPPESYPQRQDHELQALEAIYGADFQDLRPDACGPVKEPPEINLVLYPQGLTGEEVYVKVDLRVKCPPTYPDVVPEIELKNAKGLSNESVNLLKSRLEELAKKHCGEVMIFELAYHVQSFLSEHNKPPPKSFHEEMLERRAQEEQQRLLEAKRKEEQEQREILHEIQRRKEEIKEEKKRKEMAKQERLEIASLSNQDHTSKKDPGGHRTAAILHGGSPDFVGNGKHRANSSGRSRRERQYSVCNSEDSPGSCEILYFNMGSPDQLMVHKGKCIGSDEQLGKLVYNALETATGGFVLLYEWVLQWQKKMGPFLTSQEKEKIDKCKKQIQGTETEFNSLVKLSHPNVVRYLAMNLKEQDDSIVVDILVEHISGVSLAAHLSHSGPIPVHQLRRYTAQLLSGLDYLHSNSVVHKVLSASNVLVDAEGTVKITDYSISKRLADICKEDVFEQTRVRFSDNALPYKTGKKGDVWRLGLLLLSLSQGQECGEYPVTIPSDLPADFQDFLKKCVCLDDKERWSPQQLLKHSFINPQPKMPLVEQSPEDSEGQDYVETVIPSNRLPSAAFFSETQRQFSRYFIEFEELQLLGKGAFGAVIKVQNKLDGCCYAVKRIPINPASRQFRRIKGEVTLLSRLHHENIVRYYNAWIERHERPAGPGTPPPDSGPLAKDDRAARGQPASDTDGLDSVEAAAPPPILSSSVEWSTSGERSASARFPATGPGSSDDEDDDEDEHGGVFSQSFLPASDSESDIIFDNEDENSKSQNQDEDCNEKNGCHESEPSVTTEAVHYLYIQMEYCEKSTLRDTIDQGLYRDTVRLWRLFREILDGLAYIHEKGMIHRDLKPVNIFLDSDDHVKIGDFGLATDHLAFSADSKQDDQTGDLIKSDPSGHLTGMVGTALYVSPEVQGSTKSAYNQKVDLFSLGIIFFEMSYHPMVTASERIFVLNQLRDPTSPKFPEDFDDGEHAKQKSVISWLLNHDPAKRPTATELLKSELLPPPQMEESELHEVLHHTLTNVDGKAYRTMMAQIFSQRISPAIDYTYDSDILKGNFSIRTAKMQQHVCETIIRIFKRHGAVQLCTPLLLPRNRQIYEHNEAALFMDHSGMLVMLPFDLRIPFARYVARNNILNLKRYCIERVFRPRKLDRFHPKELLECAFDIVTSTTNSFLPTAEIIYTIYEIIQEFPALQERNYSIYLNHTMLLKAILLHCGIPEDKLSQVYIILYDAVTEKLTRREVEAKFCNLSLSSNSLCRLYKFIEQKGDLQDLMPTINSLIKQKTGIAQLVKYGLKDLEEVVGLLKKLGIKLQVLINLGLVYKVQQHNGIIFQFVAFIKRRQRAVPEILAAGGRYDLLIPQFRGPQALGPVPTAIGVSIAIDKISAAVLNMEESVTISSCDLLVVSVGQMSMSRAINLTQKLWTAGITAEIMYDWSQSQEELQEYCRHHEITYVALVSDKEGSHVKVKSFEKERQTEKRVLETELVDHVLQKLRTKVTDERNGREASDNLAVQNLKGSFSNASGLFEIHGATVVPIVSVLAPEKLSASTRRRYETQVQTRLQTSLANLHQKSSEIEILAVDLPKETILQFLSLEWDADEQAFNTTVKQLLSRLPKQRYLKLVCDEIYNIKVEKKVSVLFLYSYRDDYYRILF
intracellular GCN2 (phosphorylation of the GCN2 substrate eIF2α), sequence (Q9P2K8 whole entry): as above

As usually defined, the IC50 is the concentration at which inhibition is half-maximal. Low readings indicate inhibition by little substance, high ones a need for much substance. At GCN2 kinase (setting [2]), `CC1CN(c2ncc(F)c(-c3cnc4cnc(C(F)(F)F)cn34)n2)CC(c2cn[nH]c2)N1` (stereo not shown) [IV-422, 3-(5-Fluoro-2-(3-methyl-5-(1H-pyrazol-4-yl)piperazin-1-yl)pyrimidin-4-yl)-6-(trifluoromethyl)imidazo[1,2-a]pyrazine] returned a Ki of 0.1 to 1 µM. Besides, the concentration for half-maximal inhibition (IC50) in assay [1] (compounds of Formula IV) is over 5 µM.
Regarding `FC(F)c1ccc2ncc(-c3cc(N4CCOCC45CC5)ncn3)n2n1` [II-400, 4-(6-(6-(Difluoromethyl)imidazo[1,2-b]pyridazin-3-yl)pyrimidin-4-yl)-7-oxa-4-azaspiro[2.5]octane], the Ki at GCN2 kinase (setting [3]) was 0.01 to 1 µM. In addition, in assay [1] (compounds of Formula II), the concentration for half-maximal inhibition (IC50) is over 5 µM.
Compound `CC1CN(c2nccc(-c3cnc4cnc(C(F)F)cn34)n2)CC(CNS(C)(=O)=O)C1(F)F` (stereo not shown) [IV-46, N-((1-(4-(6-(Difluoromethyl)imidazo[1,2-a]pyrazin-3-yl)pyrimidin-2-yl)-4,4-difluoro-5-methylpiperidin-3-yl)methyl)methanesulfonamide] returned a Ki on GCN2 kinase (setting [2]) of 0.1 to 1 µM. The compound further gave a half-inhibitory concentration (IC50) in assay [1] (compounds of Formula IV) of over 5 µM.
On GCN2 kinase (setting [3]), `CC1CC(CNS(C)(=O)=O)CN(c2cc(-c3cnc4ccc(C(F)F)nn34)ncn2)C1` (stereo not shown) [II-398, N-((1-(6-(6-(Difluoromethyl)imidazo[1,2-b]pyridazin-3-yl)pyrimidin-4-yl)-5-methylpiperidin-3-yl)methyl)methanesulfonamide] showed a Ki of 0.01 to 1 µM. This compound also returned an IC50 in assay [1] (compounds of Formula II) of 0.5 to 5 µM.
`COc1cc(-c2cnc3ccc(C(F)F)nn23)cc(N2CCC[C@H](CNS(C)(=O)=O)C2)n1` [II-120, (S)—N-((1-(4-(6-(Difluoromethyl)imidazo[1,2-b]pyridazin-3-yl)-6-methoxypyridin-2-yl)piperidin-3-yl)methyl)methanesulfonamide] had a Ki on GCN2 kinase (setting [3]) of under 0.01 µM. In assay [1] (compounds of Formula II), this compound gave a half-maximal inhibitory concentration (IC50) of over 5 µM.
In turn, `CC1C(c2cn[nH]c2)NCCN1c1ccnc(-c2cnc3cnc(C(F)(F)F)cn23)n1` (single isomer, unassigned) [IV-357, 3-(4-(2-Methyl-3-(1H-pyrazol-4-yl)piperazin-1-yl)pyrimidin-2-yl)-6-(trifluoromethyl)imidazo[1,2-a]pyrazine] came in with a Ki at GCN2 kinase (setting [2]) of 0.1 to 1 µM. Besides, in assay [1] (compounds of Formula IV), the concentration for half-maximal inhibition (IC50) is over 5 µM.
On to `Cc1n[nH]c(C)c1C1CN(c2ccnc(-c3cnc4cnc(C(F)(F)F)cn34)n2)CC(C)N1` (single isomer, unassigned) [IV-467, 3-(4-(3-(3,5-Dimethyl-1H-pyrazol-4-yl)-5-methylpiperazin-1-yl)pyrimidin-2-yl)-6-(trifluoromethyl)imidazo[1,2-a]pyrazine], for which, at GCN2 kinase (setting [2]), the Ki is 0.1 to 1 µM. For the same compound, the concentration for half-maximal inhibition (IC50) in assay [1] (compounds of Formula IV) is over 5 µM.
In turn, `OCC1CN(c2cc(-c3cnc4ccc(C(F)F)nn34)ncn2)CC2(COC2)O1` (stereo not shown) [II-343, (8-(6-(6-(Difluoromethyl)imidazo[1,2-b]pyridazin-3-yl)pyrimidin-4-yl)-2,5-dioxa-8-azaspiro[3.5]nonan-6-yl)methanol] showed a Ki on GCN2 kinase (setting [3]) of 0.01 to 1 µM. In assay [1] (compounds of Formula II), this compound registered an IC50 of over 5 µM.
Compound `CS(=O)(=O)NC[C@@H]1CN(c2nc(-c3cnc4cnc(C(F)F)cn34)ns2)CCO1` [IV-703, (S)—N-((4-(3-(6-(difluoromethyl)imidazo[1,2-a]pyrazin-3-yl)-1,2,4-thiadiazol-5-yl)morpholin-2-yl)methyl)methanesulfonamide] displayed a Ki at GCN2 kinase (setting [2]) of 0.1 to 1 µM. Further, in assay [1] (compounds of Formula IV), the 50% inhibitory concentration (IC50) is over 5 µM.
`CCC1C(CNS(C)(=O)=O)CCCN1c1cc(-c2cnc3ccc(C(F)F)nn23)ncn1` (stereo not shown) [II-391, N-((1-(6-(6-(Difluoromethyl)imidazo[1,2-b]pyridazin-3-yl)pyrimidin-4-yl)-2-ethylpiperidin-3-yl)methyl)methanesulfonamide] gave a Ki at GCN2 kinase (setting [3]) of under 0.01 µM. The same compound showed an IC50 in assay [1] (compounds of Formula II) of under 0.5 µM.
Compound `FC(F)(F)c1cn2c(-c3nccc(N4CCCC(c5nccs5)C4)n3)cnc2cn1` (stereo not shown) [IV-675, 2-(1-(2-(6-(Trifluoromethyl)imidazo[1,2-a]pyrazin-3-yl)pyrimidin-4-yl)piperidin-3-yl)thiazole] registered a Ki on GCN2 kinase (setting [2]) of 0.01 to 0.1 µM. In assay [1] (compounds of Formula IV), this compound gave an IC50 of over 5 µM.
For `CC1CN(c2ccnc(-c3cnc4cnc(Cl)cn34)n2)CC(c2cn[nH]c2)O1` (single isomer, unassigned) [IV-216, 4-(2-(6-Chloroimidazo[1,2-a]pyrazin-3-yl)pyrimidin-4-yl)-2-methyl-6-(1H-pyrazol-4-yl)morpholine] the same measures were under 0.01 µM and 0.5 to 5 µM.
Consider `CC1(O)CC(CNS(C)(=O)=O)CN(c2cc(-c3cnc4ccc(C(F)F)nn34)ncn2)C1` (single isomer, unassigned) [II-6, N-((1-(6-(6-(Difluoromethyl)imidazo[1,2-b]pyridazin-3-yl)pyrimidin-4-yl)-5-hydroxy-5-methylpiperidin-3-yl)methyl)methanesulfonamide], for which the Ki at GCN2 kinase (setting [3]) lay in the range of 0.01 to 1 µM. For the same compound, the IC50 in assay [1] (compounds of Formula II) fell in the range of 0.5 to 5 µM.
For `CS(=O)(=O)NC[C@@H]1CN(c2cc(-c3cnc4ccc(C(F)F)nn34)ncn2)C[C@H](C(F)(F)F)O1` [II-331, N-(((2S,6R)-4-(6-(6-(Difluoromethyl)imidazo[1,2-b]pyridazin-3-yl)pyrimidin-4-yl)-6-(trifluoromethyl)morpholin-2-yl)methyl)methanesulfonamide] the same measures were under 0.01 µM and under 0.5 µM.
Turning to `C[C@@H]1C[C@@H](c2cn[nH]c2)CN(c2ccnc(-c3cnc4cnc(C(F)(F)F)cn34)n2)C1` [IV-769, 3-(4-((3R,5S)-3-methyl-5-(1H-pyrazol-4-yl)piperidin-1-yl)pyrimidin-2-yl)-6-(trifluoromethyl)imidazo[1,2-a]pyrazine], the IC50 is 0.01 to 1 µM on GCN2 kinase (compounds of Formula IV, 4 nM GCN2 kinase) and under 0.5 µM in assay [1] (compounds of Formula IV).
`CC1CN(c2nccc(-c3cnc4cnc(Br)cn34)n2)C(C)C(c2cn[nH]c2)N1` (single isomer, unassigned) [IV-404, 6-Bromo-3-(2-(2,5-dimethyl-3-(1H-pyrazol-4-yl)piperazin-1-yl)pyrimidin-4-yl)imidazo[1,2-a]pyrazine] displayed a Ki on GCN2 kinase (setting [2]) of 0.1 to 1 µM. The IC50 in assay [1] (compounds of Formula IV) fell in the range of 0.5 to 5 µM.
Consider `FC(F)c1ccc2ncc(-c3cc(N4CCOC5CC54)ncn3)n2n1` (stereo not shown) [II-301, 5-(6-(6-(Difluoromethyl)imidazo[1,2-b]pyridazin-3-yl)pyrimidin-4-yl)-2-oxa-5-azabicyclo[4.1.0]heptane], for which, at GCN2 kinase (setting [3]), the Ki was 0.01 to 1 µM. Further, the IC50 in assay [1] (compounds of Formula II) is 0.5 to 5 µM.
In turn, `OC1CCN(c2ccnc(-c3cnc4cnc(C(F)(F)F)cn34)n2)CC1c1cn[nH]c1` (single isomer, unassigned) [IV-622, 3-(1H-Pyrazol-4-yl)-1-(2-(6-(trifluoromethyl)imidazo[1,2-a]pyrazin-3-yl)pyrimidin-4-yl)piperidin-4-ol] came in with a Ki on GCN2 kinase (setting [2]) of under 0.01 µM. The same compound had an IC50 in assay [1] (compounds of Formula IV) of 0.5 to 5 µM.
The like results for `Cc1[nH]ncc1C1CCCN(c2ccnc(-c3cnc4cnc(C(F)(F)F)cn34)n2)C1` (single isomer, unassigned) [IV-470, 3-(4-(3-(5-Methyl-1H-pyrazol-4-yl)piperidin-1-yl)pyrimidin-2-yl)-6-(trifluoromethyl)imidazo[1,2-a]pyrazine] were, in that order, under 0.01 µM and over 5 µM.
As for `CS(=O)(=O)NCC1CC(O)CN(c2cc(-c3cnc4ccc(C(F)F)nn34)ccn2)C1` (stereo not shown) [II-39, N-((1-(4-(6-(Difluoromethyl)imidazo[1,2-b]pyridazin-3-yl)pyridin-2-yl)-5-hydroxypiperidin-3-yl)methyl)methanesulfonamide], the Ki at GCN2 kinase (setting [3]) was in the range of 0.01 to 1 µM. Also, the IC50 in assay [1] (compounds of Formula II) is 0.5 to 5 µM.
`Cc1ncc(-c2cnc3ccc(C(F)F)nn23)cc1N1CCCC(CNS(C)(=O)=O)C1` (stereo not shown) [II-49, N-((1-(5-(6-(Difluoromethyl)imidazo[1,2-b]pyridazin-3-yl)-2-methylpyridin-3-yl)piperidin-3-yl)methyl)methanesulfonamide] showed a Ki on GCN2 kinase (setting [3]) of 0.01 to 1 µM. For the same compound, the IC50 in assay [1] (compounds of Formula II) was 0.5 to 5 µM.
For `CS(=O)(=O)NCC1CN(c2ccnc(-c3cnc4ccc(C(F)F)nn34)c2)CCC1(F)F` (stereo not shown) [II-103, N-((1-(2-(6-(Difluoromethyl)imidazo[1,2-b]pyridazin-3-yl)pyridin-4-yl)-4,4-difluoropiperidin-3-yl)methyl)methanesulfonamide], on GCN2 kinase (setting [3]), the Ki was under 0.01 µM. The concentration for half-maximal inhibition (IC50) in assay [1] (compounds of Formula II) is under 0.5 µM.
On GCN2 kinase (setting [2]), `CC1CCC(C(N)=O)CN1c1ccnc(-c2cnc3cnc(C(F)(F)F)cn23)n1` (stereo not shown) [IV-631, 6-Methyl-1-(2-(6-(trifluoromethyl)imidazo[1,2-a]pyrazin-3-yl)pyrimidin-4-yl)piperidine-3-carboxamide] returned a Ki of 0.01 to 0.1 µM. In addition, the 50% inhibitory concentration (IC50) in assay [1] (compounds of Formula IV) was in the range of 0.5 to 5 µM.
For `O=S1(=O)CCN(c2cc(-c3cnc4ccc(C(F)F)nn34)ncn2)CC1` [II-295, 4-(6-(6-(Difluoromethyl)imidazo[1,2-b]pyridazin-3-yl)pyrimidin-4-yl)thiomorpholine 1,1-dioxide], at GCN2 kinase (setting [3]), the Ki was over 1 µM. The compound also had a half-inhibitory concentration (IC50) in assay [1] (compounds of Formula II) of over 5 µM.
The compound `FC(F)c1cn2c(-c3nccc(N4CCC(c5c[nH]cn5)C4)n3)cnc2cn1` (stereo not shown) [IV-67, 3-(4-(3-(1H-Imidazol-4-yl)pyrrolidin-1-yl)pyrimidin-2-yl)-6-(difluoromethyl)imidazo[1,2-a]pyrazine] registered a Ki at GCN2 kinase (setting [2]) of 0.1 to 1 µM. In assay [1] (compounds of Formula IV), this compound returned an IC50 of over 5 µM.
The like results for `Cc1n[nH]cc1C1CCN(c2ccnc(-c3cnc4cnc(C(F)(F)F)cn34)n2)C1` (stereo not shown) [IV-575, 3-(4-(3-(3-Methyl-1H-pyrazol-4-yl)pyrrolidin-1-yl)pyrimidin-2-yl)-6-(trifluoromethyl)imidazo[1,2-a]pyrazine] were, in that order, 0.01 to 0.1 µM and 0.5 to 5 µM.
